Data taken from US6989396B2, “Tropane alkaloid multidrug resistance inhibitors from Erythroxylum pervillei and use of the same” (The Board of Trustees of the University of Illinois, priority 2001, dated 2006).
Where two headings read alike, the source gives them in different places. Marks after values point to notes of the source that are not given here.

Assays:
Col2, colon cancer = test: In vitro cytotoxicity, human tumor panel: Col2; type: cell-based; conditions: Homo sapiens, read-out: ED50 Col2
Procedure: Cytotoxicity assay. Compounds 1–9 were evaluated for cytotoxic activity against a panel of human cancer cell lines, including KB-V1 in the presence and absence of VLB, according to an established protocol (68).

KB-3 cells = test: Growth inhibitory potential (sulforhodamine B cell survival assay): KB-3; type: cell-based; conditions: Homo sapiens, KB3, 72 h, read-out: IC50 KB-3
Procedure: One part of a natural product drug discovery program involves monitoring the potential of plant extracts to reverse multiple drug resistance. […] To investigate the potential of plant extracts or compounds to reverse multidrug-resistance, KB-V1 cells are treated with different concentrations of plant extracts or compounds in the presence (1 μg/ml) or absence of vinblastine.
(§1) Cytotoxic potential. The cytotoxic potential of test substances with KB-3, KB-V1 and KB-8-5 cells was determined as described previously (24). Briefly, various concentrations of test compounds (dissolved in 10 μl of 10% DMSO) were transferred to 96-well plates, and 190 μl aliquots of cell suspensions (5×10^4 cells/ml) were added to each well. The plates then were incubated for 72 hours at 37° C. (100% humidity with a 5% CO2 atmosphere in air), and 100 μl of cold 20% aqueous trichloroacetic acid were added to the growth medium in each well to fix the cells. The cultures were incubated at 4° C. for 30 minutes, washed, air-dried, stained with sulforhodamine B solution, and washed with 1% acetic acid. Finally, 200 μl of 10 mM Tris base were added to each well and the optical densities were determined at 515 nm utilizing an ELISA plate reader. In each case, a zero-day control was performed by adding an equivalent number of cells to several wells and incubating at 37° C. for 30 minutes, and processing as described above. Optical density values obtained with the zero-day control were subtracted, and cell survival, relative to control (solvent-treated) cultures, was calculated. The cytotoxic potential of the compounds with CEM and CEM/VLB100 cells was determined as described by Beck et al. (30). Cells were grown in 24-well plates at a density of 5–6×10^5 cells/ml. At 48 hours, the cell number was determined using a Coulter Counter, with a channelizer to distinguish cells from debris.

KB-8-5 cells [1] = test: Reversal of MDR, cell survival assay: KB-8-5 with or without colchicine; type: cell-based, human; conditions: for Ratio of IC50 values KB-3/[KB-8-5 (+)] / Ratio of IC50 values [KB-8-5 (−)]/[KB-8-5 (+)]: colchicine 10 ng/ml
Procedure: as §1, with “Finally, 200 μl of 10 mM Tris base were added to each well and the optical densities were determined at 515 nm utilizing an ELISA plate reader.” left out

CEM/VLB100 cells = test: MDR reversal in drug-resistant human leukemia CEM/VLB100 cells; type: cell-based; conditions: for IC50: Homo sapiens
Procedure: as §1, with “Finally, 200 μl of 10 mM Tris base were added to each well and the optical densities were determined at 515 nm utilizing an ELISA plate reader.” left out

KB-V1 cells = test: [3H]Vinblastine accumulation with intact cells; type: cell-based, human; conditions: modulator 0–40 μM
Procedure: [^3H]Vinblastine accumulation with intact cells. Measurement of the accumulation of [^3H]vinblastine in cell monolayers was performed by the method of Fojo et al. (34) with some modifications. Studies were performed with 24-well plates. In preparing the cell monolayers, 2 ml of a cell suspension containing 2.5×10^5 cells per ml of incubation medium (DMEM with 10% calf serum) were added to each well. Control wells contained 2 ml of assay medium. […] Monolayers were washed three times with cold PBS, dried by inversion, and the cells were treated with trypsin. Cell suspensions were then transferred to vials containing 3 ml of scintillation solution (CytoScint™, ICN), mixed vigorously, and counted. The quantity of [^3H]vinblastine associated with incubations containing cells was corrected by subtracting the counts associated with incubations not containing cells.

KB-8-5 cells [2] = test: In vivo hollow fiber test: KB-8-5; parameters: species or system NCr nu/nu mice
Procedure: In vivo hollow fiber test. […] Confluent monolayers of KB-3, KB-V1 or KB-8-5 cells were harvested, collected by centrifugation and resuspended in conditioned medium at a concentration of 7.5×10^5 cells/ml.
Test compounds were administrated once daily by intraperitoneal injection from day 3–6 after implantation. Body weights were measure daily.
After incubating at 37° C. for 4 hours, the culture medium was aspirated and the samples were washed twice with normal saline containing 2.5% protamine sulfate solution by overnight incubation at 4° C. […] The formazan was extracted from each sample with DMSO (250 μl/well) for 4 hours at room temperature on a rotation platform.

[3] = pervilleine A 5 μM, verapamil 10 μM
[4] = summation of single-agent inhibitions

**Q.** How did the IC50 (Col2, colon cancer) turn out when COc1cc(C=CC(=O)O[C@H]2[C@@H](O)[C@@H]3C[C@H](OC(=O)c4cc(OC)c(OC)c(OC)c4)C[C@H]2N3C)cc(OC)c1OC [Compound 3, 3α-(3,4,5-trimethoxybenzoyloxy)-6β-(3,4,5-trimethoxycinnamoyloxy)-7β-hydroxytropane] was run?
**A.** Its IC50 is over 20 µg/mL.

**Q.** What about the IC50 (KB-3 cells) of the same molecule?
**A.** The IC50 was 24 µM.

**Q.** And the IC50 (KB-8-5 cells [1]; Homo sapiens)?
**A.** The IC50 was 14 µM.

**Q.** And the “Ratio of IC50 values KB-3/[KB-8-5 (+)]” value (KB-8-5 cells [1]; listed as Pervilleine A)?
**A.** The value was 40.3^d.

**Q.** And the “Ratio of IC50 values [KB-8-5 (−)]/[KB-8-5 (+)]” value (KB-8-5 cells [1]; listed as Pervilleine A)?
**A.** Its value is 23.3^d.

**Q.** What about the “Ratio of IC50 values KB-3/[KB-8-5 (+)]” value (KB-8-5 cells [1]; listed as pervilleine A) of the same molecule?
**A.** Its value is 40.3.

**Q.** What about the “Ratio of IC50 values [KB-8-5 (−)]/[KB-8-5 (+)]” value (KB-8-5 cells [1]; listed as pervilleine A) of the same molecule?
**A.** Its value is 23.3.

**Q.** And the IC50 (CEM/VLB100 cells; CEM/VLB100, 48 h, read-out: IC50 Modulator only)?
**A.** Its IC50 is over 15 µM.

**Q.** And the IC50 (CEM/VLB100 cells; CEM/VLB100, read-out: IC50 (Modulator + Daunorubicin))?
**A.** Its IC50 is 0.065 µM.

**Q.** And the IC50 (CEM/VLB100 cells; CEM/VLB100, read-out: IC50 (Modulator + Vinblastine))?
**A.** The IC50 was 0.02 µM.

**Q.** What about the “Ratio of IC50 values Daunorubicin/(Modulator + Daunorubicin)” value (CEM/VLB100 cells; [3]) of the same molecule?
**A.** The value was 15^c.

**Q.** What about the “Ratio of IC50 values Modulator/(Modulator + Daunorubicin)” value (CEM/VLB100 cells; [3]) of the same molecule?
**A.** The value was >231^c.

**Q.** What about the “Ratio of IC50 values Modulator/(Modulator + Vinblastine)” value (CEM/VLB100 cells; [3]) of the same molecule?
**A.** The value was >750^c.

**Q.** And the “Ratio of IC50 values Vinblastine/(Modulator + Vinblastine)” value (CEM/VLB100 cells; [3])?
**A.** Its value is 250^c.

**Q.** And the “fold increase of [3H]vinblastine accumulation” value (KB-V1 cells)?
**A.** Its value is “about 27 fold”.

**Q.** And the “Calculated inhibition (vinblastine + reversing agent as single agents), KB-8-5, i.p. site” value (KB-8-5 cells [2]; [4])?
**A.** The value was 4.5%.

**Q.** And the “Calculated inhibition (vinblastine + reversing agent as single agents), KB-8-5, s.c. site” value (KB-8-5 cells [2]; [4])?
**A.** Its value is 4.9%.

**Q.** And the “Observed inhibition from coadministration with vinblastine, KB-8-5, s.c. site” value (KB-8-5 cells [2]; vinblastine 100 μg/kg + reversing agent 0.136 mmol/kg)?
**A.** Its value is 28 (P = 0.008) %.

**Q.** And the “Observed inhibition from coadministration with vinblastine, KB-8-5, i.p. site” value (KB-8-5 cells [2]; vinblastine 100 μg/kg + reversing agent 0.136 mmol/kg, listed as pervilleine A)?
**A.** The value was 74.7 (P < 0.0001) %.

**Q.** What about the “Growth inhibition, single agent, KB-8-5, s.c. site” value (KB-8-5 cells [2]; vinblastine 100 μg/kg, reversing agents 0.136 mmol/kg) of the same molecule?
**A.** Its value is 2.6%.

**Q.** And the “Growth inhibition, single agent, KB-8-5, i.p. site” value (KB-8-5 cells [2]; vinblastine 100 μg/kg, reversing agents 0.136 mmol/kg, i.p. injection once daily days 3–6)?
**A.** Its value is 3.3%.
